Assay results published in PMC5941726, “Evaluating Hepatobiliary Transport with ^18F-Labeled Bile Acids: The Effect of Radiolabel Position and Bile Acid Structure on Radiosynthesis and In Vitro and In Vivo Performance” (Contrast Media & Molecular Imaging, 2018).
Where two headings read alike, the source gives them in different places.

Experiments:
BSEP = BSEP (Homo sapiens, UniProt O95342); assay: Inhibition of [^3H]TC uptake in BSEP membrane vesicles (efflux assay)
Procedure: All dosing was performed in triplicate. The plates were suspended in a 37°C water bath 1 minute before the incubation. Incubation was started by adding 10 μL of the ATP solution or buffer solution (negative control). Each well contained a final volume of 30 μL and the plates were incubated for 10 minutes at 37°C.
The contents of each well were pipetted in a glass fiber filter plate (Multiscreen HTS plates; Merck Millipore) and washed 3 times with 200 μL ice-cold buffer solution. Finally, 100 μL 0.1 M NaOH was added: lysis of the vesicles took place for 10 minutes at room temperature. An aliquot was used for liquid scintillation counting.

OATP1B1 [1] = biological target: T1, OATP1B1 (Homo sapiens, UniProt Q9Y6L6)
T1 sequence (Q9Y6L6 1-691): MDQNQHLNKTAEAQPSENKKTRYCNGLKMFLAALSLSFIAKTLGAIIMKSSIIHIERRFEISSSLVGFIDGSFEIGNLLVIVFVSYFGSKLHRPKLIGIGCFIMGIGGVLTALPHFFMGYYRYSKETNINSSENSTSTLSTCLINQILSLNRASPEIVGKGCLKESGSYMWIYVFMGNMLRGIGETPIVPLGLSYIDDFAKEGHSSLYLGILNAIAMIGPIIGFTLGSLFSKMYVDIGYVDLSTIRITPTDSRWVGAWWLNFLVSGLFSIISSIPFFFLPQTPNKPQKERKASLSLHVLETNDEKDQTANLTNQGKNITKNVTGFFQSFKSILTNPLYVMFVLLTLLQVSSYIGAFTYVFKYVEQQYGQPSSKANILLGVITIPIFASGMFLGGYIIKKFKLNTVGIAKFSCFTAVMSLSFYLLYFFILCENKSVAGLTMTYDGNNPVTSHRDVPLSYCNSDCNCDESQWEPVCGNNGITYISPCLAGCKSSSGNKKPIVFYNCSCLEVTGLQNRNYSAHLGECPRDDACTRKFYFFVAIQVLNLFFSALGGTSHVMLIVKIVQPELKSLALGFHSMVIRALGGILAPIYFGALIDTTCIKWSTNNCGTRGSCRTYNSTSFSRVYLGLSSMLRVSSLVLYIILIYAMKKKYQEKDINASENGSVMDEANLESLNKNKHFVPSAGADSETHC
Procedure: (§1) Chinese Hamster Ovary (CHO) and Human Embryonic Kidney (HEK) cells expressing NTCP and OATP1B1, respectively (Solvo Biotechnologies), were used.
(§2) Cells were seeded in 24-well plates at 400,000 cells/well. […] All dosing solutions were formulated in the washing buffer and dosing was executed in triplicate. The incubation was stopped by placing the plates on ice and adding 1 mL ice-cold 1% BSA HBSS-solution. The supernatant was aspirated and the cells were washed twice with 2 mL ice-cold HBSS-solution. NaOH (250 μl, 0.1 M) was added to lyse the cells and the plates were shaken (15 minutes, 37°C). Aliquots of this lysate were subjected to liquid scintillation counting (TriCarb 2900 TR; Perkin Elmer) and protein determination with a BCA-assay (ThermoFisher Scientific).

NTCP = biological target: T2, NTCP (Homo sapiens, UniProt Q14973); assay: Inhibition of [^3H]taurocholate uptake in CHO cells expressing NTCP (competition assay); format: cell-based; settings: for Ki: 1 μM [^3H]TC, 15 min 37°C, Cheng-Prusoff from IC50 and Km, mean ± SD n = 3
T2 construct: host or cells: Chinese Hamster Ovary (CHO) cells
T2 sequence (Q14973 1-349): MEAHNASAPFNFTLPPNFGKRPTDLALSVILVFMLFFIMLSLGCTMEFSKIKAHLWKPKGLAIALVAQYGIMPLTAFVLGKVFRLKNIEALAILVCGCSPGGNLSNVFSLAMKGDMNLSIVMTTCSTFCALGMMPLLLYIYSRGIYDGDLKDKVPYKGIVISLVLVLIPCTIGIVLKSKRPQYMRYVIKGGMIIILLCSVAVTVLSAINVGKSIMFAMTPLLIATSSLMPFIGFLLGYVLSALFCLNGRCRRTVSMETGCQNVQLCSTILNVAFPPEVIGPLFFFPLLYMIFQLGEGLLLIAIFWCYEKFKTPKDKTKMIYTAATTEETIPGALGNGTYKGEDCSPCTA
Source text: Maintenance of these cell cultures was described earlier.

OATP1B1 [2] = biological target: T1, OATP1B1; assay: cell-based
Procedure: as §1, §2

OATP1B1 [3] = biological target: T1, OATP1B1; assay: Inhibition of [^3H]estradiol-17β-glucuronide uptake in HEK cells expressing OATP1B1 (competition assay)
Procedure: as §1, §2

BSEP, sequence (O95342 whole entry, species assumed): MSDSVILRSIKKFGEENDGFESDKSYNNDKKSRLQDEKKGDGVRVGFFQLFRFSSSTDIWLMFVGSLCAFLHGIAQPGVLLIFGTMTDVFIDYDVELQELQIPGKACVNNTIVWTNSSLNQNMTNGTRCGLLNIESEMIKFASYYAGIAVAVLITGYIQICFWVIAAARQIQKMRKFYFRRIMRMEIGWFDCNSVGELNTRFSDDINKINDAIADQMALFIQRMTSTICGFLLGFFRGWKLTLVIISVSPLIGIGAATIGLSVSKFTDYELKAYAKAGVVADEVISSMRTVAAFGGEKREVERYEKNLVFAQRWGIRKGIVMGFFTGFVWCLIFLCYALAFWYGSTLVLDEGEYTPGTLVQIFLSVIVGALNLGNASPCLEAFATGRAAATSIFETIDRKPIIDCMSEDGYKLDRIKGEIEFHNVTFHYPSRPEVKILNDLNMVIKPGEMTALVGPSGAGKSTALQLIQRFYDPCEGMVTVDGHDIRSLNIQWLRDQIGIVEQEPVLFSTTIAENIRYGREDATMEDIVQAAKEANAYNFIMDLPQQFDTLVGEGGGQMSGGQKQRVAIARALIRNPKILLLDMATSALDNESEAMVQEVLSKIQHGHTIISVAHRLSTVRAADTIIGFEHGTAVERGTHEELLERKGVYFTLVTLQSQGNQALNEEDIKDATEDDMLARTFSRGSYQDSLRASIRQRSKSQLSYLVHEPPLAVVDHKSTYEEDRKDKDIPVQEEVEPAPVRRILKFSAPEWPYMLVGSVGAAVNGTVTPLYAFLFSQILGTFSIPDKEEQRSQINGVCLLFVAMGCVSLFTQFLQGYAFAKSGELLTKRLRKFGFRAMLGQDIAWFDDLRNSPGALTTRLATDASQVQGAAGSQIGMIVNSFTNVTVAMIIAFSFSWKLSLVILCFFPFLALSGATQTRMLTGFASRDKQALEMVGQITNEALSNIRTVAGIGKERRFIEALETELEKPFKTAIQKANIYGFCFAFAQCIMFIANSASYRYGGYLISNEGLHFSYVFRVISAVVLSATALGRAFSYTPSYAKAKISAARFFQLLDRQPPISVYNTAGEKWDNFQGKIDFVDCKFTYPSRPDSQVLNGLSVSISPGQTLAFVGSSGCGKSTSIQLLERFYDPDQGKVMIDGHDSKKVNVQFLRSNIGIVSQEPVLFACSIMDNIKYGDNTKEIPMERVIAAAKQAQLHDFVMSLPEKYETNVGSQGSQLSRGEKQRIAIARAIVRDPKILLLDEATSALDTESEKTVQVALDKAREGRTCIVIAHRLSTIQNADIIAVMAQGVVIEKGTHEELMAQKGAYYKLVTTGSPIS

Structure (SMILES)	Ki (BSEP)	Ki (OATP1B1 [1])	Ki (NTCP)	also measured
C[C@H](CCC(=O)O)[C@H]1CC[C@H]2[C@@H]3[C@H](O)C[C@@H]4C[C@@H](F)CC[C@]4(C)[C@H]3CC[C@]12C [3βFCDCA]	48.2 ± 3.94 µM	0.64 ± 0.07 µM	0.91 ± 0.02 µM	–
C[C@H](CCC(=O)NCC(=O)O)[C@H]1CC[C@H]2[C@@H]3[C@H](O)C[C@@H]4C[C@@H](F)CC[C@]4(C)[C@H]3C[C@H](O)[C@]12C [3βFGCA, 3β F glycocholic acid]	87.4 ± 14.6 µM	4.24 ± 0.16 µM	1.09 ± 0.34 µM	–
C[C@H](CCC(=O)O)[C@H]1CC[C@H]2[C@@H]3[C@H](O)C[C@@H]4C[C@H](O)CC[C@]4(C)[C@H]3C[C@@H](F)[C@]12C [12βFCA]	–	4.56 ± 0.25 µM	30.1 ± 9.4 µM	Ki (BSEP; read-out: Ki for BSEP, BSEP membrane vesicles, 0.65 μM [^3H]TC, 10 min 37°C, Cheng-Prusoff from IC50 and Km, mean ± SD n = 3): 367 ± 38.1 µM
C[C@H](CCC(=O)O)[C@H]1CC[C@H]2[C@@H]3[C@H](O)C[C@@H]4C[C@H](O)CC[C@]4(C)[C@H]3C[C@H](O)[C@]12C [CA, Cholic acid]	–	–	–	Ki (OATP1B1 [2]): 42.7 ± 0.16 µM
C[C@]12CC[C@@H]3c4ccc(O)cc4CC[C@H]3[C@@H]1CC[C@@H]2O[C@@H]1O[C@H](C(=O)O)[C@@H](O)[C@H](O)[C@H]1O [[^3H]EbG, [^3H]estradiol-17β-glucuronide]	–	–	–	Vmax of substrate uptake (OATP1B1 [3]; 0–150 μM, 10 min 37°C): 146.4 ± 5.52 pmol/min·mg protein; Km (OATP1B1 [3]; read-out: Km (Michaelis-Menten) of substrate uptake, 0–150 μM, 10 min 37°C): 11.7 ± 1.59 µM
C[C@H](CCC(=O)NCCS(=O)(=O)O)[C@H]1CC[C@H]2[C@@H]3[C@H](O)C[C@@H]4C[C@H](O)CC[C@]4(C)[C@H]3C[C@H](O)[C@]12C [[^3H]TC, [^3H]taurocholate, reference compound]	–	–	–	Vmax of substrate uptake (NTCP; 0–150 μM, 10 min 37°C): 200.4 ± 9.77 pmol/min·mg protein; Km (NTCP; 0–150 μM, 10 min 37°C, read-out: Km (Michaelis-Menten) of substrate uptake): 15.3 ± 2.46 µM
